Data published in patent US12351571B2, “Substituted quinoxaline compounds as inhibitors of FGFR tyrosine kinases” (ARRAY BIOPHARMA INC., priority 2018, dated 2025).

Experiments:
[1] = molecular target: FGFR3 (Homo sapiens (Human), UniProt P22607); experiment: FGFR Enzyme Activity Assay (LanthaScreen TR-FRET), FGFR3; assay type: biochemical; conditions: 25 μM ATP, 10 minute incubation; read-out: FGFR3 Enz FRET IC50
Description: FGFR3 kinase activity was measured by the Invitrogen LanthaScreen™ Assay technology which directly measures the amount of substrate phosphorylation by TR-FRET using a flourescently-labeled peptide and Europium-labeled antibody. Briefly, 750 pM N-terminal GST-HIS6 fusion protein with a 3C cleavage site recombinant human FGFR3 (amino acids R397-T806) (ProQinase Cat. No. 1068-0000-1) was incubated with 100 nM Alexa Fluor® 647-Poly-GT Peptide Substrate (Life Technologies Cat. No. PV5836) and 25 μM ATP along with test compound in a buffer consisting of 250 mM HEPES, 25 mM MgCl2, 0.05% TritonX-100, pH 7.5, and 2% DMSO. Compounds were typically prepared in a threefold serial dilution in DMSO and added to the assay to give the appropriate final concentration. After a 10 minute incubation at 22° C., an equal volume of 2 nM LanthaScreen® Eu-PY20 Antibody (Life Technologies Cat. No. PV5691) and 10 mM EDTA were added to quench the kinase reaction and start the detection reaction. After an additional 60 minute incubation at 22° C., the reaction was measured using a PerkinElmer EnVision multimode plate reader via TR-FRET dual wavelength detection, and the percent of control (POC) calculated using a ratiometric emission factor. 100 POC was determined using no test compounds and 0 POC was determined using no enzyme. The POC values were fit to a 4-parameter logistic curve as a function of the concentration of the compound, and the IC50 value is the point where the curve crosses 50 POC.

[2] = molecular target: human wild type FGFR1 (Homo sapiens (Human), UniProt P11362); experiment: FGFR1 pERK Cell Assay; assay type: cell-based; conditions: HEK-293 cells, 1 hour compound, 100 ng/ml human FGF-acidic; maximum concentration 5 μM
Sequence of human wild type FGFR1 (P11362 22-822): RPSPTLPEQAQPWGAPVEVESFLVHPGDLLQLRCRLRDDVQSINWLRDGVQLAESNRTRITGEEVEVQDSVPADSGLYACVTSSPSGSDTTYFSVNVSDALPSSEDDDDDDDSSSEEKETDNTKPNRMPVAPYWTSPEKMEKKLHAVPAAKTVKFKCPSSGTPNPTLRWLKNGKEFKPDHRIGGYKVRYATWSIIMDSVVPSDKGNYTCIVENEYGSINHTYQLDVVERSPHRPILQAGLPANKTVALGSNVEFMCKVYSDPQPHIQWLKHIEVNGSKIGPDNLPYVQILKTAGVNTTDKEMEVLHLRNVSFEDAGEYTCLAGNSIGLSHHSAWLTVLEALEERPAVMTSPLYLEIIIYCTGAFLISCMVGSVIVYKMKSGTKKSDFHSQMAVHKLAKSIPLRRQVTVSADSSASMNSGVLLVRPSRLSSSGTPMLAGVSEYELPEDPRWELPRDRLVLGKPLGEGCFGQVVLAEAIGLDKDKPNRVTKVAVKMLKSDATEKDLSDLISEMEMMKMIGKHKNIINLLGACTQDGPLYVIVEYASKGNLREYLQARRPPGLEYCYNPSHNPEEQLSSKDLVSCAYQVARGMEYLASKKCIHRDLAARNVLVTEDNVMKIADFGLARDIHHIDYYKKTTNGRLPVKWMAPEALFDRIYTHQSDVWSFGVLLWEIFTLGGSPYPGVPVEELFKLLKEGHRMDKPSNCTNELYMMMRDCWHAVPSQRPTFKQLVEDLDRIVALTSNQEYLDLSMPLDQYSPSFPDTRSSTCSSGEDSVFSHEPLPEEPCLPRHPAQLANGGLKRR
Description: HEK-293 cells transfected with doxycycline(dox)-inducible human wild type FGFR1 (SEQ ID NO: 1) were plated in a collagen or poly-D-lysine coated 96 well flat bottom plates at 4×10^5 cells/well in complete Dulbecco's Modified Eagle Medium (DMEM) containing 10% FBS and 1 μg/ml doxycycline and allowed to attach for 24 h at 37° C., 5% CO2. Cells were treated with compound using 1:3 serial dilutions with a maximum final concentration of 5 μM. Compound was incubated on cells for 1 hour at 37° C., 5% CO2. Cells were then stimulated with a final concentration of 100 ng/ml human FGF-acidic (R&D Systems Cat number 232-FA/CF) for 5 minutes at 37° C., 5% CO2. Medium was removed, and cells were lysed with lysis buffer containing phosphatase and protease inhibitors. Phospho ERK1/2 was measured using the Meso Scale Discovery sandwich assay (Meso Scale Discovery cat. no. K151DWD). The assay captures phospho ERK1/2 and detects with a sulfo-tagged total ERK1/2 antibody. The chemiluminescent signal was read on the Sector Imager Plate reader. 100 POC was determined using no test compound and 0 POC was determined using a control compound. The POC values were fit to a 4-parameter logistic curve as a function of the concentration of the compound, and the IC50 value is the point where the curve crosses 50 POC.

[3] = molecular target: recombinant human FGFR1 catalytic domain (Homo sapiens (Human), UniProt P11362); experiment: FGFR Enzyme Activity Assay (LanthaScreen TR-FRET), FGFR1; assay type: biochemical; conditions: 15 μM ATP, 20 minutes incubation; read-out: FGFR1 Enz FRET IC50
Sequence of recombinant human FGFR1 catalytic domain (P11362 other isoform, or with tags, fused parts or gaps): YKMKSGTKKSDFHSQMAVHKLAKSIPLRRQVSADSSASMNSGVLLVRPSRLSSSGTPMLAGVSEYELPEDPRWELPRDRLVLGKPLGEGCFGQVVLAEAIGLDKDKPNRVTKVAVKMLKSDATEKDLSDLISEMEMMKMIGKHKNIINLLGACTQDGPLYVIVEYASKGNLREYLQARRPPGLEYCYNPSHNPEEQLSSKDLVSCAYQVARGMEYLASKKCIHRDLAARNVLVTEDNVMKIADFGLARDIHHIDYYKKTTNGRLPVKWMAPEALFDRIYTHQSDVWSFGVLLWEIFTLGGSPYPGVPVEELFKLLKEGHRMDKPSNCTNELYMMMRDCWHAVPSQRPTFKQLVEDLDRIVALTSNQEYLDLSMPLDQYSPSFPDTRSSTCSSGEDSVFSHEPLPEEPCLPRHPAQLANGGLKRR
Description: FGFR1 kinase activity was measured by the Invitrogen LanthaScreen™ Assay technology which directly measures the amount of substrate phosphorylation by Time-resolved fluorescence energy transfer (TR-FRET) using a flourescently-labeled peptide and Europium-labeled antibody. Briefly, 200 pM His-tagged recombinant human FGFR1 catalytic domain (amino acids 308-731) (Life Technologies Cat. No. PR4660A) was incubated with 100 nM Alexa Fluor® 647-Poly-GT Peptide Substrate (Life Technologies Cat. No. PV5836) and 15 μM ATP along with test compound in a buffer consisting of 250 mM HEPES, 25 mM MgCl2, 0.05% TritonX-100, pH 7.5, and 2% DMSO. Compounds were typically prepared in a threefold serial dilution in DMSO and added to the assay to give the appropriate final concentration. After a 20 minutes incubation at 22° C., an equal volume of 2 nM LanthaScreen® Eu-PY20 Antibody (Life Technologies Cat. No. PV5691) and 10 mM EDTA was added to quench the kinase reaction and start the detection reaction. After an additional 60 minute incubation at 22° C., the reaction was measured using a PerkinElmer EnVision multimode plate reader via TR-FRET dual wavelength detection, and the percent of control (POC) calculated using a ratiometric emission factor. 100 POC was determined using no test compounds and 0 POC was determined using no enzyme. The POC values were fit to a 4-parameter logistic curve as a function of the concentration of the compound, and the IC50 value is the point where the curve crosses 50 POC.

[4] = molecular target: phosphorylated FGFR3 (Homo sapiens (Human), UniProt P22607); experiment: FGFR Enzyme Binding Assay (HTRF tracer displacement), FGFR3; conditions: 5 nM phosphorylated FGFR3, 60 minute incubation at 22° C.; read-out: FGFR3 Enz Binding IC50
Sequence of phosphorylated FGFR3 (P22607 449-759): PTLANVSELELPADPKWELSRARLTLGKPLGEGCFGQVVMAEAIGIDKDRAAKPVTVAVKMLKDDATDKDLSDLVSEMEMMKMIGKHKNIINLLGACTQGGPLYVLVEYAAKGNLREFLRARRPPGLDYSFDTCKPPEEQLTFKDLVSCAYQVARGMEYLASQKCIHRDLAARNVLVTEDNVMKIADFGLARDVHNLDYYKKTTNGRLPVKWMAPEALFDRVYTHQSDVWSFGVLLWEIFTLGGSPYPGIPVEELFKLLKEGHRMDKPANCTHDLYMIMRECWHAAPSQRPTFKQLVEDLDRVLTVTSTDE
Description: The potency of compounds inhibiting human isoforms of FGFR kinase was determined using Life Technologies' Homogeneous Time Resolved Fluorescence (HTRF)-based binding assay technology. An incubation was conducted with either 5 nM dephosphorylated FGFR1 (Array Biopharma, p1702; SEQ ID NO: 1, amino acids 458 to 765, dephosphorylated by co-expression with PTP1b (protein tyrosine phosphatase 1B)), 5 nM dephosphorylated FGFR2 (Life Technologies, Cat. No. PV4106 that had been dephosphorylated with Lambda protein phosphatase (New England Biolabs, cat #P0753)) or 5 nM phosphorylated FGFR3 (Array Biopharma, p1836; SEQ ID NO: 5, amino acids 449 to 759), 50 nM Kinase Tracer 236 (Life Technologies Cat. No. PR9078A), 2 nM Biotin-anti-6HIS (Life Technologies Cat. No. PV6090) and 2 nM Europium-Streptavidin (Life Technologies Cat. No. PV6025) along with test compound in a buffer consisting of 50 mM HEPES ((4-(2-hydroxyethyl)-1-piperazineethanesulfonic acid, pH 7.5), 5 mM MgCl2, 0.005% Triton X-100, 1 mM DTT, 1 mM NaVO4 and 2% DMSO in a final volume of 12 μL Compounds were typically prepared as a 3-fold or 4-fold serial dilution in DMSO and added to the assay to give the appropriate final concentration. After a 60 minute incubation at 22° C., the extent of tracer displacement was determined using a PerkinElmer EnVision multimode plate reader via HTRF dual wavelength detection, and the percent of control (POC) was calculated using a ratiometric emission factor. One hundred POC was determined using no test compound, and 0 POC was determined in the presence of 1 μM of an appropriate control inhibitor. A 4-parameter logistic curve was fit to the POC values as a function of the concentration of compound, and the IC50 value was the point where the best-fit curve crossed 50 POC.

Sequence of FGFR3 (P22607 397-806): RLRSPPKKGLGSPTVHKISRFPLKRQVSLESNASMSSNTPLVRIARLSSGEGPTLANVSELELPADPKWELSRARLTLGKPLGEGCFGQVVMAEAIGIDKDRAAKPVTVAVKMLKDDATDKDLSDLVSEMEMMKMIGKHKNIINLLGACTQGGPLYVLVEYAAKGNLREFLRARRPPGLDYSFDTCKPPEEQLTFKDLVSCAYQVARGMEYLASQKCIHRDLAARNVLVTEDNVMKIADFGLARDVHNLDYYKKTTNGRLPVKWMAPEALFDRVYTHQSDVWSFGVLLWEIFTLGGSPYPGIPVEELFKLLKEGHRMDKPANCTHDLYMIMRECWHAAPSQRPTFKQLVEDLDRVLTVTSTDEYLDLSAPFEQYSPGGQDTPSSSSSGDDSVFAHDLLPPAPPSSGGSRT

Row | Structure (SMILES) | IC50 [1] | IC50 [2] | IC50 [3] | IC50 [4]
1 | C=CC(=O)N1CC(F)(C(=O)N2CCN(c3ccc(-c4cnc5ccc(Nc6cc(OC)cc(OC)c6)cc5n4)cn3)CC2)C1 [Example 8, 1-(3-(4-(5-(7-((3,5-dimethoxyphenyl)amino)-quinoxalin-2-yl)pyridin-2-yl)piperazine-1-carbonyl)-3-fluoroazetidin-1-yl)-prop-2-en-1-one] | 631 nM | 1140 nM | 831 nM | 30 nM
2 | COc1cc(Nc2ccc3ncc(-c4ccc(N5CCN(C(=O)C6CN(C(=O)/C=C/CN(C)C)C6)CC5)nc4)nc3c2)cc(OC)c1 [Example 6, (E)-1-(3-(4-(5-(7-((3,5-dimethoxyphenyl)amino)-quinoxalin-2-yl)pyridin-2-yl)piperazine-1-carbonyl)azetidin-1-yl)-4-(dimethylamino)but-2-en-1-one] | 161 nM | ≥ 5000 nM | 216 nM | 9 nM
3 | COc1cc(Nc2ccc3ncc(-c4cnn(C5CCN(C(=O)C6CN(C(=O)/C=C/CN(C)C)C6)CC5)c4)nc3c2)cc(OC)c1 [Example 9, (E)-1-(3-(4-(4-(7-((3,5-dimethoxyphenyl)amino)-quinoxalin-2-yl)-1H-pyrazol-1-yl)piperidine-1-carbonyl)azetidin-1-yl)-4-(dimethylamino)but-2-en-1-one] | 23 nM | 2230 nM | 29 nM | 2 nM

Results, then the molecule that gave them:

Row | IC50 [1] | IC50 [2] | IC50 [3] | IC50 [4] | Structure (SMILES)
4 | 490 nM | 1940 nM | 1560 nM | 123 nM | COc1cc(Nc2ccc3ncc(-c4cnc(N5CCN(C(=O)C6(F)CN(C(=O)/C=C/CN(C)C)C6)CC5)cc4C)nc3c2)cc(OC)c1 [Example 14, (E)-1-(3-(4-(5-(7-((3,5-dimethoxyphenyl)amino)-quinoxalin-2-yl)-4-methylpyridin-2-yl)-piperazine-1-carbonyl)-3-fluoroazetidin-1-yl)-4-(dimethylamino)but-2-en-1-one]
5 | 37 nM | 1890 nM | 295 nM | 5 nM | C=CC(=O)N1CC(C(=O)N2CC[C@@H](n3cc(-c4cnc5ccc(Nc6cc(OC)cc(OC)c6)cc5n4)cn3)C2)C1 [Example 21, (R)-1-(3-(3-(4-(7-((3,5-dimethoxyphenyl)amino)-quinoxalin-2-yl)-1H-pyrazol-1-yl)pyrrolidine-1-carbonyl)azetidin-1-yl)prop-2-en-1-one]
6 | 79 nM | 898 nM | 339 nM | 4 nM | COc1cc(Nc2ccc3ncc(-c4cn(C5CCN(C(=O)C6(F)CN(C(=O)/C=C/CN(C)C)C6)CC5)nc4C)nc3c2)cc(OC)c1 [Example 22, (E)-1-(3-(4-(4-(7-((3,5-dimethoxyphenyl)amino)-quinoxalin-2-yl)-3-methyl-1H-pyrazol-1-yl)-piperidine-1-carbonyl)-3-fluoroazetidin-1-yl)-4-(dimethylamino)but-2-en-1-one]
7 | 373 nM | 3660 nM | 1210 nM | 18 nM | C=CC(=O)N1CC(C(=O)N2CCC(n3ncc(-c4cnc5ccc(Nc6cc(OC)cc(OC)c6)cc5n4)c3C)CC2)C1 [Example 18, 1-(3-(4-(4-(7-((3,5-dimethoxyphenyl)amino)-quinoxalin-2-yl)-5-methyl-1H-pyrazol-1-yl)piperi-dine-1-carbonyl)azetidin-1-yl)prop-2-en-1-one]
